According to ChEMBL document CHEMBL1909046, “DrugMatrix in vitro pharmacology data”:

Key:
[1] = target: Beta-2 adrenergic receptor (Homo sapiens, UniProt P07550); assay: DRUGMATRIX: Adrenergic beta2 radioligand binding (ligand: [3H] CGP-12177); format: cell membranes, Membrane; settings: cho; Not Active = under 50% inhibition at 10 µM
[2] = DRUGMATRIX: Atrial Natriuretic Factor (ANF) radioligand binding (ligand: [125I] ANF (rat)); format: cell membranes, Cavia porcellus, Dunkin-Hartley, Adrenal gland, Membrane; settings: Not Active = under 50% inhibition at 10 µM
[3] = target: Vasopressin V1a receptor (Homo sapiens, UniProt P37288); format: cell membranes, Membrane; settings: hek293; also: in other assays of this panel Not Active means under 50% inhibition at 10 µM
Sequence of Vasopressin V1a receptor (P37288 whole entry): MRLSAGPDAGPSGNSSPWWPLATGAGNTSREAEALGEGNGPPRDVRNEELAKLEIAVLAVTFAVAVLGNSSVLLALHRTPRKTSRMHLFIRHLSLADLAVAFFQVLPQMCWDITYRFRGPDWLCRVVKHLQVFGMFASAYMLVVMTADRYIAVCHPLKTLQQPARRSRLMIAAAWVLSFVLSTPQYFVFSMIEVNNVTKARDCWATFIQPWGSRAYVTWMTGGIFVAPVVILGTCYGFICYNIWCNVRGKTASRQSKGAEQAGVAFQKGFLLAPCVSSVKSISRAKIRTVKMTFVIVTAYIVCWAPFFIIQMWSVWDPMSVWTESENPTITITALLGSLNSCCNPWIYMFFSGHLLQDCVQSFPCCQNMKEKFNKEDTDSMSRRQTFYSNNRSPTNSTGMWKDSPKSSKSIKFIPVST

[4] = DRUGMATRIX: Potassium Channel [KATP] radioligand binding (ligand: [3H] Glyburide); format: cell membranes, Membrane; settings: hit-t15; Not Active = under 50% inhibition at 10 µM
[5] = target: T1, Calcitonin receptor (Homo sapiens, UniProt P30988); format: cell membranes, Membrane; settings: t47d; also: in other assays of this panel Not Active means under 50% inhibition at 10 µM
T1 sequence (P30988 whole entry): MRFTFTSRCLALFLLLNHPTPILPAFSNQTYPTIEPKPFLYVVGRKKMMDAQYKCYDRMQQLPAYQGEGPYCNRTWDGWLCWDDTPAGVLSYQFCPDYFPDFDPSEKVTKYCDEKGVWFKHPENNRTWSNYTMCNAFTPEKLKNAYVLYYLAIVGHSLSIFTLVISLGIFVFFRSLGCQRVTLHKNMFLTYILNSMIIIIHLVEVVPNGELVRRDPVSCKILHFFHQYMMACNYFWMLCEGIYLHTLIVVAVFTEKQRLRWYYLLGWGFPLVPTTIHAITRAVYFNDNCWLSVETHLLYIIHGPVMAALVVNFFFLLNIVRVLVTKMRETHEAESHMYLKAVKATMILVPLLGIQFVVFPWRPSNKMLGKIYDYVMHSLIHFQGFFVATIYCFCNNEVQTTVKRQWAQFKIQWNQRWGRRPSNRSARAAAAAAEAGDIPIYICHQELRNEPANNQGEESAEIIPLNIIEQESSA

[6] = DRUGMATRIX: Phorbol Ester radioligand binding (ligand: [3H] PDBu); format: cell membranes, Mus musculus, ICR, Brain, Membrane; settings: Not Active = under 50% inhibition at 10 µM
[7] = target: Adenosine receptor A2a (Homo sapiens, UniProt P29274); assay: DRUGMATRIX: Adenosine A2A radioligand binding (ligand: […]); format: cell membranes, HEK293, Membrane; settings: hek293; Not Active = under 50% inhibition at 10 µM
Sequence of Adenosine receptor A2a (P29274 whole entry): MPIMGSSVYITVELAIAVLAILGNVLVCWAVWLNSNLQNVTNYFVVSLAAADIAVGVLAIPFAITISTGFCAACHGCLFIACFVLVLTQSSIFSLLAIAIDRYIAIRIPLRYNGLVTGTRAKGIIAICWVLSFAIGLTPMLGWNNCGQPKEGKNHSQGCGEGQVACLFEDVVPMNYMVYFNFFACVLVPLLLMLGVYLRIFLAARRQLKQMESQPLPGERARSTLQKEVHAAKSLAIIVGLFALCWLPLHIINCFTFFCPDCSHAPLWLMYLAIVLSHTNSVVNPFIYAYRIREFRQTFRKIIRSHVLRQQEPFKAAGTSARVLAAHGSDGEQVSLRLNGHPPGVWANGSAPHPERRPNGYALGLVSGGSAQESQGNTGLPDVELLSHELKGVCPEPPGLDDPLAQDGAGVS

[8] = target: Voltage-gated inwardly rectifying potassium channel KCNH2 (Homo sapiens, UniProt Q12809); settings: hek293; also: in other assays of this panel Not Active means under 50% inhibition at 10 µM
Sequence of Voltage-gated inwardly rectifying potassium channel KCNH2 (Q12809 whole entry): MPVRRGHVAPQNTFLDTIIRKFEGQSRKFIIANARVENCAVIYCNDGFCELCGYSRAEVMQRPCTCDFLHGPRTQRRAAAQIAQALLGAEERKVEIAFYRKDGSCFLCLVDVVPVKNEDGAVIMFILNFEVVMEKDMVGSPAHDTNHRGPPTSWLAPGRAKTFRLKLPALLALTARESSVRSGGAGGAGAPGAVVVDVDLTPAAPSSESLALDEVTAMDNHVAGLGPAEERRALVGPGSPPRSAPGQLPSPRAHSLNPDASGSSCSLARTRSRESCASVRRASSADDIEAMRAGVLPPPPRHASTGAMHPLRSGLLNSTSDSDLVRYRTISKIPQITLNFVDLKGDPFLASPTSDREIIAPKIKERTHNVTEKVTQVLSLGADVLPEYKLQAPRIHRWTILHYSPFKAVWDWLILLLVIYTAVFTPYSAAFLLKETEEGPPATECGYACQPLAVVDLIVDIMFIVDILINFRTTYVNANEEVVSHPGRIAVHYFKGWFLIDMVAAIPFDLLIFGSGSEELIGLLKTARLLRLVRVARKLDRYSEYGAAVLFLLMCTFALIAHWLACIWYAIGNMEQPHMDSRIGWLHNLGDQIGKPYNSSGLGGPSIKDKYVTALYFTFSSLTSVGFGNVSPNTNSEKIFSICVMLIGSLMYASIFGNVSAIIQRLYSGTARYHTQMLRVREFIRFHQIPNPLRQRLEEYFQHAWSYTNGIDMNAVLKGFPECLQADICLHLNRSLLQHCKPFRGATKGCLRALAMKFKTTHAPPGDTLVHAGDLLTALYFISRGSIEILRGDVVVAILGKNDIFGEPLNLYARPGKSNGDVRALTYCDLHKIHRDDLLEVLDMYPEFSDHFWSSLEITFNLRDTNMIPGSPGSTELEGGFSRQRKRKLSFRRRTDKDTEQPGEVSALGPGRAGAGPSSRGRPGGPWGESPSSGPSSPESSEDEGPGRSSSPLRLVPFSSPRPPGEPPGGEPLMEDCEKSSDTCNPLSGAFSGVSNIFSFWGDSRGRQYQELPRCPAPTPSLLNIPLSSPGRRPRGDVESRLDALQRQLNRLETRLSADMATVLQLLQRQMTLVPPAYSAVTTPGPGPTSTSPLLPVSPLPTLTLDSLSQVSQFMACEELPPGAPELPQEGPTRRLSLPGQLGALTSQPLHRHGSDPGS

[9] = target: T2, 5-hydroxytryptamine receptor 1A (Rattus norvegicus, UniProt P19327); format: cell membranes, Membrane; settings: cho-k1; also: in other assays of this panel Not Active means under 50% inhibition at 10 µM
T2 sequence (P19327 whole entry): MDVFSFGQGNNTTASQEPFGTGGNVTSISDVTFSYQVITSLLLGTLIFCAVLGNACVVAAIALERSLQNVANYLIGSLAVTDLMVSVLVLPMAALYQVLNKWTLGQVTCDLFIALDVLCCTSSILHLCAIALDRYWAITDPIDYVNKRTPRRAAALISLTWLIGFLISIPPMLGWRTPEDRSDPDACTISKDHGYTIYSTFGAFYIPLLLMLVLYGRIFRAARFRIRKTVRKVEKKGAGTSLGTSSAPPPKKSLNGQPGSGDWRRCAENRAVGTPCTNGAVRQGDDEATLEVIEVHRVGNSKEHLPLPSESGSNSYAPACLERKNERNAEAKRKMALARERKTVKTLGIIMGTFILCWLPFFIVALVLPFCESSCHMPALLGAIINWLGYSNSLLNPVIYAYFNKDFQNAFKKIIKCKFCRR

[10] = target: Nitric oxide synthase 1 (Rattus norvegicus, UniProt P29476); format: tissue-based, Cerebellum; also: in other assays of this panel Not Active means under 50% inhibition at 10 µM
Sequence of Nitric oxide synthase 1 (P29476 whole entry): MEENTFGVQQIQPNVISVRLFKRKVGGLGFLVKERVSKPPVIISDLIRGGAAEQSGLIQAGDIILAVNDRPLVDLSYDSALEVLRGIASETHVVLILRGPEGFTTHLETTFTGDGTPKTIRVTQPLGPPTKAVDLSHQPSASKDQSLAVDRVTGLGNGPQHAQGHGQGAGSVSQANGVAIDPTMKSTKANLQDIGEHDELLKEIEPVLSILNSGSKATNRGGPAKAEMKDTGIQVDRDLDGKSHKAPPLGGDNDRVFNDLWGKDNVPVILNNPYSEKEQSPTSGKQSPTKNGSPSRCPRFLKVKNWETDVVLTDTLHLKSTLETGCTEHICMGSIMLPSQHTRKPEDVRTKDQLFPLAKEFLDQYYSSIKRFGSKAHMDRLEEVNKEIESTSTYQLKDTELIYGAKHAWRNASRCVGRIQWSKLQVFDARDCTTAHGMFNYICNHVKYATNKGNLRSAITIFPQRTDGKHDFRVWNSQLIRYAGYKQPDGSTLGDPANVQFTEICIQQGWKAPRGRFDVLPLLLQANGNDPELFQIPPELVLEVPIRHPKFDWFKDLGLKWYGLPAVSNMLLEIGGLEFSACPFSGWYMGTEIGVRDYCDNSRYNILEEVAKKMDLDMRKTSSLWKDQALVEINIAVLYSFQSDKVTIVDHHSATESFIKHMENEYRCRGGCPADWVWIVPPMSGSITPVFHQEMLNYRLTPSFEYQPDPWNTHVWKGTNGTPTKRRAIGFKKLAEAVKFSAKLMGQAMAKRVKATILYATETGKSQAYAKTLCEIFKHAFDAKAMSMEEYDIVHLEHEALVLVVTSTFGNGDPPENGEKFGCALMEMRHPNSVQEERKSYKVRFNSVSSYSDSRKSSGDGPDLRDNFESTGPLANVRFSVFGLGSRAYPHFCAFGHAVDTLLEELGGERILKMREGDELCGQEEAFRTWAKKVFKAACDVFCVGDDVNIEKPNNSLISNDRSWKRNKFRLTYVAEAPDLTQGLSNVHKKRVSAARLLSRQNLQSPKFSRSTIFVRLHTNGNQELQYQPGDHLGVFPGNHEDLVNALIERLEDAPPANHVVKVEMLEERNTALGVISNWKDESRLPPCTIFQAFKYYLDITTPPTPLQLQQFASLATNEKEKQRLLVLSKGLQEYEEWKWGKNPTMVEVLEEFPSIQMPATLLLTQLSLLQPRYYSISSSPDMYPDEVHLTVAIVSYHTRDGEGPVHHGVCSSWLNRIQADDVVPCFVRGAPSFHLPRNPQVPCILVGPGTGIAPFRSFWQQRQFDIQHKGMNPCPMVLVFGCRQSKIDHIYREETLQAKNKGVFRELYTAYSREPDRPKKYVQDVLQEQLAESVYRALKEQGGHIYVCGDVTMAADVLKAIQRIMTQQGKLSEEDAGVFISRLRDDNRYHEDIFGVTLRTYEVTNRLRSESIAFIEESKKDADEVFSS

[11] = target: T3, Nitric oxide synthase, inducible (Mus musculus, UniProt P29477); parameters: species or system Escherichia coli
T3 sequence (P29477 whole entry): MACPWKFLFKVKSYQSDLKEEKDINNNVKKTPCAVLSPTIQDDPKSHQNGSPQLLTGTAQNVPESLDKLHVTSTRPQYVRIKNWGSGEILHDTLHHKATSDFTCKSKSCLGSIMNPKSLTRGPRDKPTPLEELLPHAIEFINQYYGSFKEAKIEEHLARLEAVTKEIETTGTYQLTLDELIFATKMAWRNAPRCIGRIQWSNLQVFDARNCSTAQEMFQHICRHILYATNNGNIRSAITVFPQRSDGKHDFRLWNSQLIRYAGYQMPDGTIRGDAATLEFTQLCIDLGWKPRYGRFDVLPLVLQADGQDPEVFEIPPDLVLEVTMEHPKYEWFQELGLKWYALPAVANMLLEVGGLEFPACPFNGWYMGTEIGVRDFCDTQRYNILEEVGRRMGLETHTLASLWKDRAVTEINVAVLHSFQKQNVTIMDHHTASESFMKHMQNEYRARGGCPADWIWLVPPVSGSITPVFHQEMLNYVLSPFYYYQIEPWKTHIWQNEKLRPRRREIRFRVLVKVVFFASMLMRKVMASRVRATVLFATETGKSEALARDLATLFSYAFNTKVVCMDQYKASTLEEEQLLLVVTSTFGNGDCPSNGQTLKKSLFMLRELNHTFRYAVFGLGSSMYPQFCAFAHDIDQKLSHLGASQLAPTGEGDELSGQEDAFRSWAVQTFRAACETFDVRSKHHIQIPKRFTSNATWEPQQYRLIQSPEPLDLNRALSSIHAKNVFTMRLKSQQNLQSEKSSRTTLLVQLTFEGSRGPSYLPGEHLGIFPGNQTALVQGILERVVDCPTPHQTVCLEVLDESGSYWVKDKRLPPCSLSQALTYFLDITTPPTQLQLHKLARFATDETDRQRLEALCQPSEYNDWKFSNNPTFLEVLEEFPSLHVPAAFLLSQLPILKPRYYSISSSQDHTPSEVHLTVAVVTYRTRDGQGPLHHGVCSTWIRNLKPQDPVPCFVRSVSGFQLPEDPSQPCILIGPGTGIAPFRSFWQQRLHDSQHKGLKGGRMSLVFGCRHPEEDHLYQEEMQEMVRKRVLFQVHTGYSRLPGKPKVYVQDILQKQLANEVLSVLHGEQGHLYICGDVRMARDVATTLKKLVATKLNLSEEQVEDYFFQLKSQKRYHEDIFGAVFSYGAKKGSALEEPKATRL

Sequence of Beta-2 adrenergic receptor (P07550 whole entry): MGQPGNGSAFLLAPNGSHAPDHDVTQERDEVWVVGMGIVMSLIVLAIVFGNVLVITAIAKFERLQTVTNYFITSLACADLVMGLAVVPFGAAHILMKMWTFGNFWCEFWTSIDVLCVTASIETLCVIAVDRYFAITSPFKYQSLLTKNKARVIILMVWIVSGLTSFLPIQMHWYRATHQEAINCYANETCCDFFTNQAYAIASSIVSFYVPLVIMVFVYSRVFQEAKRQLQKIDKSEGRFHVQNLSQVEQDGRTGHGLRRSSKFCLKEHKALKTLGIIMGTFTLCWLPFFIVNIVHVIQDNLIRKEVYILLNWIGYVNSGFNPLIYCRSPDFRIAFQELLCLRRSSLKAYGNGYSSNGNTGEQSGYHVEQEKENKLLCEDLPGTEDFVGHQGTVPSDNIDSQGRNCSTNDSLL

CC1=C(CC(=O)O)c2cc(F)ccc2/C1=C\c1ccc([S+](C)[O-])cc1 (stereo not drawn)
Not Active: IC50 [1] | IC50 [2] | Ki [2] | IC50 [3] | IC50 [4] | Ki [4] | IC50 [5] | IC50 [6] | Ki [6] | IC50 [7] | IC50 [8] | Ki [8] | IC50 [9] | IC50 [10] | IC50 [11]

N[C@H](CSC(=S)NCc1ccccc1)C(=O)O
Not Active: IC50 [1] | IC50 [2] | Ki [2] | IC50 [3] | IC50 [4] | Ki [4] | IC50 [5] | IC50 [6] | Ki [6] | IC50 [7] | IC50 [8] | Ki [8] | IC50 [9] | IC50 [10] | IC50 [11]

CC(=O)N[C@@H]1[C@H](Oc2c3cc4cc2Oc2ccc(cc2Cl)[C@@H](O[C@@H]2O[C@@H](CO)[C@@H](O)[C@H](O)[C@@H]2NC(C)=O)[C@@H]2NC(=O)[C@H](NC(=O)[C@@H]4NC(=O)[C@H]4NC(=O)[C@@H](Cc5ccc(c(Cl)c5)O3)NC(=O)[C@H](N)c3ccc(O)c(c3)Oc3cc(O)cc4c3)c3ccc(O)c(c3)-c3c(O[C@H]4O[C@H](CO)[C@@H](O)[C@@H](O)[C@@H]4O)cc(O)cc3[C@@H](C(=O)O)NC2=O)O[C@@H](CO)[C@@H](O)[C@@H]1O
Not Active: IC50 [1] | IC50 [2] | Ki [2] | IC50 [3] | IC50 [4] | Ki [4] | IC50 [5] | IC50 [6] | Ki [6] | IC50 [7] | IC50 [8] | Ki [8] | IC50 [9] | IC50 [10] | IC50 [11]

Clc1ccc2c(c1)C(N1CCNCC1)=Nc1ccccc1O2 [AMOXAPINE]
Not Active: IC50 [1] | IC50 [3] | IC50 [5] | IC50 [7] | IC50 [8] | Ki [8] | IC50 [9] | IC50 [10] | IC50 [11]

COc1cc2c(c(OC)c1OC)-c1ccc(OC)c(=O)cc1[C@@H](NC(C)=O)CC2 [COLCHICINE]
Not Active: IC50 [1] | IC50 [3] | IC50 [5] | IC50 [7] | IC50 [8] | Ki [8] | IC50 [9] | IC50 [10] | IC50 [11]

CN1CCC(=C2c3ccccc3C=Cc3ccccc32)CC1 [CYPROHEPTADINE]
Not Active: IC50 [1] | IC50 [3] | IC50 [5] | IC50 [7] | IC50 [10] | IC50 [11]

CC/C(=C(/CC)c1ccc(O)cc1)c1ccc(O)cc1 [DIETHYLSTILBESTROL]
Not Active: IC50 [1] | IC50 [5] | IC50 [8] | Ki [8] | IC50 [9] | IC50 [10] | IC50 [11]

CC(=O)N1CCN(c2ccc(OCC3COC(Cn4ccnc4)(c4ccc(Cl)cc4Cl)O3)cc2)CC1 (stereo not drawn) [KETOCONAZOLE]
Not Active: IC50 [1] | IC50 [2] | Ki [2] | IC50 [3] | IC50 [5] | IC50 [6] | Ki [6] | IC50 [7] | IC50 [9] | IC50 [10] | IC50 [11]

C=CCN1CC[C@]23c4c5ccc(O)c4O[C@H]2C(=O)CC[C@@]3(O)[C@H]1C5 [NALOXONE]
Not Active: IC50 [1] | IC50 [3] | IC50 [5] | IC50 [7] | IC50 [8] | Ki [8] | IC50 [9] | IC50 [10] | IC50 [11]

COCCOC(=O)C1=C(C)NC(C)=C(C(=O)OC(C)C)C1c1cccc([N+](=O)[O-])c1 (stereo not drawn) [NIMODIPINE]
Not Active: IC50 [1] | IC50 [2] | Ki [2] | IC50 [3] | IC50 [4] | Ki [4] | IC50 [5] | IC50 [6] | Ki [6] | IC50 [7] | IC50 [8] | Ki [8] | IC50 [9] | IC50 [10] | IC50 [11]

CC(C)NCC(O)COc1cccc2ccccc12 (stereo not drawn) [PROPRANOLOL]
Not Active: IC50 [3] | IC50 [5] | IC50 [7] | IC50 [8] | Ki [8] | IC50 [10] | IC50 [11]

O=C(c1ccc(OCCN2CCCCC2)cc1)c1c(-c2ccc(O)cc2)sc2cc(O)ccc12 [RALOXIFENE]
Not Active: IC50 [1] | IC50 [2] | Ki [2] | IC50 [3] | IC50 [4] | Ki [4] | IC50 [5] | IC50 [6] | Ki [6] | IC50 [8] | Ki [8] | IC50 [9] | IC50 [10] | IC50 [11]

CC(C)c1nc(CN(C)C(=O)N[C@H](C(=O)N[C@@H](Cc2ccccc2)C[C@H](O)[C@H](Cc2ccccc2)NC(=O)OCc2cncs2)C(C)C)cs1 [RITONAVIR]
Not Active: IC50 [1] | IC50 [2] | Ki [2] | IC50 [4] | Ki [4] | IC50 [5] | IC50 [6] | Ki [6] | IC50 [7] | IC50 [9] | IC50 [10] | IC50 [11]

CC(C)(C)c1ccc(C(O)CCCN2CCC(C(O)(c3ccccc3)c3ccccc3)CC2)cc1 (stereo not drawn) [TERFENADINE]
Not Active: IC50 [1] | IC50 [2] | Ki [2] | IC50 [3] | IC50 [5] | IC50 [6] | Ki [6] | IC50 [7] | IC50 [9] | IC50 [10] | IC50 [11]

C[C@@H](N)[C@H]1CC[C@H](C(=O)Nc2ccncc2)CC1 [Y-27632]
Not Active: IC50 [1] | IC50 [2] | Ki [2] | IC50 [3] | IC50 [4] | Ki [4] | IC50 [5] | IC50 [6] | Ki [6] | IC50 [7] | IC50 [9] | IC50 [10] | IC50 [11]
